Legend:
Thromboxane A2 receptor = target: T1, Thromboxane A2 receptor (Homo sapiens, UniProt P21731); assay type: functional, cell-based
T1 sequence (P21731 whole entry): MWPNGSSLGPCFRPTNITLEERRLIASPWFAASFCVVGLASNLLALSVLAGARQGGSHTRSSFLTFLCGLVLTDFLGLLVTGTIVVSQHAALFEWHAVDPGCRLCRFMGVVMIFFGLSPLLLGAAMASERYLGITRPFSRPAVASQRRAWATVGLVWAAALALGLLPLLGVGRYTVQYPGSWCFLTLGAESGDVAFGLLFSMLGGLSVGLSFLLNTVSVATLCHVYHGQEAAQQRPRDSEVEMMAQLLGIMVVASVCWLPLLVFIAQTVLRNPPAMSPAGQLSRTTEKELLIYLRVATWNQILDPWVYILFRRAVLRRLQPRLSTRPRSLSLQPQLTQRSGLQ

[1] = target: T2, Amine oxidase [flavin-containing] A (Homo sapiens, UniProt P21397); assay type: functional
T2 sequence (P21397 whole entry): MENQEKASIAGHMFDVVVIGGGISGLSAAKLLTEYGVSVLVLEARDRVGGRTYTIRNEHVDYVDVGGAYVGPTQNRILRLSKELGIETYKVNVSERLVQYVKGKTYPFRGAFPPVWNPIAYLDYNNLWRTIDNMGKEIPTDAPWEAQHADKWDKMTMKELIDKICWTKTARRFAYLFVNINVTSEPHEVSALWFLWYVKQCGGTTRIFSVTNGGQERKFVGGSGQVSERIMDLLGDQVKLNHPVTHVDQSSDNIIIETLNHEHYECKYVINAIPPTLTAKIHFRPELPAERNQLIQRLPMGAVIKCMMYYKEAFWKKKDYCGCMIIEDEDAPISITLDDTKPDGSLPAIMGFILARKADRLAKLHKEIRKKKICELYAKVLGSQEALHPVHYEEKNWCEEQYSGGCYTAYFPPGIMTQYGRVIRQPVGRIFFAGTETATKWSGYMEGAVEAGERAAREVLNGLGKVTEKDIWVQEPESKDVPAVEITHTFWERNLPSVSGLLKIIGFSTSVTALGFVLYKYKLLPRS

Histamine H3 receptor = Histamine H3 receptor (Homo sapiens, UniProt Q9Y5N1)
[2] = target: 3',5'-cyclic-AMP phosphodiesterase 4A (Homo sapiens, UniProt P27815); assay type: functional
Prothrombin = Prothrombin (Homo sapiens, UniProt P00734); assay type: functional
[3] = target: T3, Muscarinic acetylcholine receptor M2 (Homo sapiens, UniProt P08172)
T3 sequence (P08172 whole entry): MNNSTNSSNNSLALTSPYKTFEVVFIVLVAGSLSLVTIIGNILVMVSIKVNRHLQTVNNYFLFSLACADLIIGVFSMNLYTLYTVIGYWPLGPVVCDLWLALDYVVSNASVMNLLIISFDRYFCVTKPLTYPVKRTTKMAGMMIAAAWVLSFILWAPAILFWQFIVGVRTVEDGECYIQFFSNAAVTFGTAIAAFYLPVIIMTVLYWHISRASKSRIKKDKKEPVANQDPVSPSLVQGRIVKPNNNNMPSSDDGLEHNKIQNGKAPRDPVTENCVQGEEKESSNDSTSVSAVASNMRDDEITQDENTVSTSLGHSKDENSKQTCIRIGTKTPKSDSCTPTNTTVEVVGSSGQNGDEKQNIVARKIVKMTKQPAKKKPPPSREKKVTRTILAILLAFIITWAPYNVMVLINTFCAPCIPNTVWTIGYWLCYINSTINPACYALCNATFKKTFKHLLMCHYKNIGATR

[4] = target: Voltage-gated inwardly rectifying potassium channel KCNH2 (Homo sapiens, UniProt Q12809); assay type: functional; conditions: read-out: AC50
[5] = target: Sodium-dependent noradrenaline transporter (Homo sapiens, UniProt P23975)
[6] = target: 5-hydroxytryptamine receptor 2B (Homo sapiens, UniProt P41595); assay type: functional, cell-based
D(3) dopamine receptor = D(3) dopamine receptor (Homo sapiens, UniProt P35462)
[7] = target: Sodium-dependent dopamine transporter (Homo sapiens, UniProt Q01959)
[8] = target: T4, 5-hydroxytryptamine receptor 1A (Homo sapiens, UniProt P08908)
T4 sequence (P08908 whole entry): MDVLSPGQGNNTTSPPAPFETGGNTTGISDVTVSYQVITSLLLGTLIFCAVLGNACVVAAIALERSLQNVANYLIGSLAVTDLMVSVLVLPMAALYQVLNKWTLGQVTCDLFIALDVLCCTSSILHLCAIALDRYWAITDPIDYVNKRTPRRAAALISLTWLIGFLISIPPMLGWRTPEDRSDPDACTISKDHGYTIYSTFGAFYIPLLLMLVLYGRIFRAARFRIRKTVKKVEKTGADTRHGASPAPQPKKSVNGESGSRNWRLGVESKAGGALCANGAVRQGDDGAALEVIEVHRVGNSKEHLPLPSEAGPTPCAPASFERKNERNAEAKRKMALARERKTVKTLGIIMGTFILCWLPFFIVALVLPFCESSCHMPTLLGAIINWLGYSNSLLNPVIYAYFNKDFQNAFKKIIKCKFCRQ

D(1A) dopamine receptor = D(1A) dopamine receptor (Homo sapiens, UniProt P21728)
Acetylcholinesterase = Acetylcholinesterase (Homo sapiens, UniProt P22303); assay type: functional
[9] = target: Prostaglandin G/H synthase 1 (Homo sapiens, UniProt P23219); assay type: functional
Mu-type opioid receptor = Mu-type opioid receptor (Homo sapiens, UniProt P35372)
[10] = target: cGMP-inhibited 3',5'-cyclic phosphodiesterase 3A (Homo sapiens, UniProt Q14432); assay type: functional
Further: assay procedure not described here.

3',5'-cyclic-AMP phosphodiesterase 4A, sequence (P27815 whole entry): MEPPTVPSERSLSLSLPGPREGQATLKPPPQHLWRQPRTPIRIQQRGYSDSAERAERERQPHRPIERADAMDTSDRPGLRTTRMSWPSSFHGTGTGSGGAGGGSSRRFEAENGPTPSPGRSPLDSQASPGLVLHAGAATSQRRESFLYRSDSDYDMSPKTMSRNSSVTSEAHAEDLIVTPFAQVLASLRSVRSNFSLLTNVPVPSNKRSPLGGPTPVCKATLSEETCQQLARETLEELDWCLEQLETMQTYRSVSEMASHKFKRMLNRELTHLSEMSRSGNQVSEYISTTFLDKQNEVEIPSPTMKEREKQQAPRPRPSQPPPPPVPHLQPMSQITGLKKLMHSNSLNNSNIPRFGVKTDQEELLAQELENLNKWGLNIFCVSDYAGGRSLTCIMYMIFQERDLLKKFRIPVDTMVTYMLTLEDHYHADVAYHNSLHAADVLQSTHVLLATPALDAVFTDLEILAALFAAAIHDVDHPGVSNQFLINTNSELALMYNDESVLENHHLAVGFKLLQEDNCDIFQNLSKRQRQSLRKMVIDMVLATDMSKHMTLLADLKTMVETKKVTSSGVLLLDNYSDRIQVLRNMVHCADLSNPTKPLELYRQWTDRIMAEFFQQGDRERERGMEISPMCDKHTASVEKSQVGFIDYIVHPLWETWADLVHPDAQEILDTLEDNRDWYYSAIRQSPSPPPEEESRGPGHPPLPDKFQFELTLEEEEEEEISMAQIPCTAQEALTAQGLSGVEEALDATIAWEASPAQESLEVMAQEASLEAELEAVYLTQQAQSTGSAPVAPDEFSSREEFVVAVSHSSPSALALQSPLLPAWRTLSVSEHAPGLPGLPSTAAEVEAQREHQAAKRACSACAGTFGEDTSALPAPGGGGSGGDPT
5-hydroxytryptamine receptor 2B, sequence (P41595 whole entry): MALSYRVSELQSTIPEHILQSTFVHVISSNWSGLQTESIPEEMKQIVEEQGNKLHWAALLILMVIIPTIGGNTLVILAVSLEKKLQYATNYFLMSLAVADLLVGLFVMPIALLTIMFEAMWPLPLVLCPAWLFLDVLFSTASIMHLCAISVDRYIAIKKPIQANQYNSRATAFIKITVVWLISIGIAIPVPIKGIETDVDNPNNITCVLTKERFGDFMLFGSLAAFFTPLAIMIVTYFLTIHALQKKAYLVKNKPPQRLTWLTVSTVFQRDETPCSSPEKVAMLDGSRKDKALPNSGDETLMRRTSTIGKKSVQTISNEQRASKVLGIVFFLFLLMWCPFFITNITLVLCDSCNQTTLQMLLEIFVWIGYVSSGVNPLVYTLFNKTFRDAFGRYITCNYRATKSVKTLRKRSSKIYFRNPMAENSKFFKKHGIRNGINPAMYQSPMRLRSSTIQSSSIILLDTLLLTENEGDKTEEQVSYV
Acetylcholinesterase, sequence (P22303 whole entry): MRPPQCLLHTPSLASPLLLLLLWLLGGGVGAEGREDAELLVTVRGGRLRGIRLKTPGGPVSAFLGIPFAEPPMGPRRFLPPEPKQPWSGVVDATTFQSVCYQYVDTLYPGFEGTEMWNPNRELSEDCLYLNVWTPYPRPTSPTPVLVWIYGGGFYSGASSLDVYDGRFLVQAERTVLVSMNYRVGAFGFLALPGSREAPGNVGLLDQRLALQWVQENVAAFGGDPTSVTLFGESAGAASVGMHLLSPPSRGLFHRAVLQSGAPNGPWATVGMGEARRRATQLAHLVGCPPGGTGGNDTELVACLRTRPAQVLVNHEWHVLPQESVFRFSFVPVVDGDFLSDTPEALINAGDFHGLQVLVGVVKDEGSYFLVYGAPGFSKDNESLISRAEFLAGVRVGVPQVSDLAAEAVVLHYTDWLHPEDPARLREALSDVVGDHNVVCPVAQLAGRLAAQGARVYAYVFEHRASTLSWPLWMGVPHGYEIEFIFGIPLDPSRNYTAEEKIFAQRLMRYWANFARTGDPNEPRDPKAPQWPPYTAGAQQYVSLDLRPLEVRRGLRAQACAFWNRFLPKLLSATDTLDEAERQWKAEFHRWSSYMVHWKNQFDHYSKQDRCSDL
Sodium-dependent dopamine transporter, sequence (Q01959 whole entry): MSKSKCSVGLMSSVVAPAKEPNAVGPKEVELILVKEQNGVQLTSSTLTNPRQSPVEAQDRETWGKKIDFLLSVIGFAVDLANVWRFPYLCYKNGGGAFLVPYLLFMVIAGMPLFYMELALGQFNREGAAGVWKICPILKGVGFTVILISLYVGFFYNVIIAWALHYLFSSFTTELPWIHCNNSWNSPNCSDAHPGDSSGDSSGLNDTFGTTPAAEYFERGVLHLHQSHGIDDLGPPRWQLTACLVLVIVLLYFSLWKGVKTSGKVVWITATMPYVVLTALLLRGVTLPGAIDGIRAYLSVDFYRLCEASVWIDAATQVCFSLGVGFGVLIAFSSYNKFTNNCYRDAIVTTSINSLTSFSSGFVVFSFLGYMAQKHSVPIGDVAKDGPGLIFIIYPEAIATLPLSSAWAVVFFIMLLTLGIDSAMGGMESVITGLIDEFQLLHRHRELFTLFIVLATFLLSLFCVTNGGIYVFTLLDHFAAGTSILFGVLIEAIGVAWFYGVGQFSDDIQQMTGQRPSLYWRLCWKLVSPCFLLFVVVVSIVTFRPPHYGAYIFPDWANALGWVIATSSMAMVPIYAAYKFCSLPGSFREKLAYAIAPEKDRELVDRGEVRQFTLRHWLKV
Voltage-gated inwardly rectifying potassium channel KCNH2, sequence (Q12809 whole entry): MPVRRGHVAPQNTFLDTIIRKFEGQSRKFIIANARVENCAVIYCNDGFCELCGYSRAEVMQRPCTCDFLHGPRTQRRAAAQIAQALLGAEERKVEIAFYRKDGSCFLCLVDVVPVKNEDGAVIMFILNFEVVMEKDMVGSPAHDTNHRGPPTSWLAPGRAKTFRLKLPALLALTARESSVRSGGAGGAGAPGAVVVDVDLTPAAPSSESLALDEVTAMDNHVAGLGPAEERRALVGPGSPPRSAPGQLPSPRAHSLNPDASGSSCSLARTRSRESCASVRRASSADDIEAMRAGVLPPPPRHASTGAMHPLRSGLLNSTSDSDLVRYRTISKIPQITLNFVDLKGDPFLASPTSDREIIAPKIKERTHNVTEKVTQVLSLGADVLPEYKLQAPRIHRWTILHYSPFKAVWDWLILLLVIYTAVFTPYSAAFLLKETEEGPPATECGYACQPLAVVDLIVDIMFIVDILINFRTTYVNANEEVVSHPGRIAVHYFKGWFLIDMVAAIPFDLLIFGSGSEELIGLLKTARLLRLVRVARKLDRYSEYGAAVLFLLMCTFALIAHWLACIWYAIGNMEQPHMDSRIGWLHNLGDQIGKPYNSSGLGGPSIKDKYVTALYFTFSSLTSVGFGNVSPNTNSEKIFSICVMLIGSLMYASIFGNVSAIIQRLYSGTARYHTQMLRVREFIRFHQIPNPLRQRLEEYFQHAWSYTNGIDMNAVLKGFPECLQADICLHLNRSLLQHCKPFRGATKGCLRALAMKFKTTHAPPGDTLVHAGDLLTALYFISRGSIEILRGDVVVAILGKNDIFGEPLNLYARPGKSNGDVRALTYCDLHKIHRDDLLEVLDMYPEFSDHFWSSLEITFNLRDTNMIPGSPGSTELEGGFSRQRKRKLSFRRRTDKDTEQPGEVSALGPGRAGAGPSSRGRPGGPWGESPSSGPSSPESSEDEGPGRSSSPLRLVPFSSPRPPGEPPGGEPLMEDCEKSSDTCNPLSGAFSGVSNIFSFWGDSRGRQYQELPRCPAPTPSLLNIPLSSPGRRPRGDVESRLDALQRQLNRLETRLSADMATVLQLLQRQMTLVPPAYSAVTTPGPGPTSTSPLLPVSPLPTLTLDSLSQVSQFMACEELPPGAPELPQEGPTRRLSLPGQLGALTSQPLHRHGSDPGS
cGMP-inhibited 3',5'-cyclic phosphodiesterase 3A, sequence (Q14432 whole entry): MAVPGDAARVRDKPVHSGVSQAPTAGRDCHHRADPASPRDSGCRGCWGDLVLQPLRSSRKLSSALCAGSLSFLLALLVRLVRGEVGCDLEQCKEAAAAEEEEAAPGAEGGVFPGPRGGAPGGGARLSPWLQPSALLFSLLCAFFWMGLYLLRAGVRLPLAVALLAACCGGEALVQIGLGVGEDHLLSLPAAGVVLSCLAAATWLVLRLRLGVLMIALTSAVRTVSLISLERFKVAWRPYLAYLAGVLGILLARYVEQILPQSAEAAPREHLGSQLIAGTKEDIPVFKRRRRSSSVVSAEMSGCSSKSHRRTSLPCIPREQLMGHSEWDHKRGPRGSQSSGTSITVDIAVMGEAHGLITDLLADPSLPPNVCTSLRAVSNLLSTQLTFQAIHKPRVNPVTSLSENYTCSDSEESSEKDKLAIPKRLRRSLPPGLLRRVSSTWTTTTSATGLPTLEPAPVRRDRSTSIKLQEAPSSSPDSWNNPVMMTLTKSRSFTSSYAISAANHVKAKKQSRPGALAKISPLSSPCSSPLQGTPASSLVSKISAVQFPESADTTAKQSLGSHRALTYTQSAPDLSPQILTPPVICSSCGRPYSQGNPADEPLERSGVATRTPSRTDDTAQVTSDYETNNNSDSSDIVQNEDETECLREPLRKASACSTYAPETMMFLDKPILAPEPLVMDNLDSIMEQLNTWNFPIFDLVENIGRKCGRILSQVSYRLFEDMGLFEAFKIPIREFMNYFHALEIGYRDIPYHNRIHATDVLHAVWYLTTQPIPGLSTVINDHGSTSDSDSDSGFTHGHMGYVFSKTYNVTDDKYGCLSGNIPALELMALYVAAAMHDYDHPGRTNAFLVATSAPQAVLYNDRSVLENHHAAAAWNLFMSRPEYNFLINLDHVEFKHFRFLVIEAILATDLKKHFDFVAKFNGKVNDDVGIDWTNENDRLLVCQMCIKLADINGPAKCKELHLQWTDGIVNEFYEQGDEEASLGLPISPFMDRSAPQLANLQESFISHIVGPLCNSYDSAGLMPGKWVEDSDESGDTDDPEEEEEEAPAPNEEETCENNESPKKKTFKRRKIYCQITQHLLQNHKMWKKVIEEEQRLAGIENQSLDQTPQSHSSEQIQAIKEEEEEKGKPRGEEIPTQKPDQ

Row | SMILES | AC50 (Thromboxane A2 receptor) [µM] | AC50 [1] [µM] | AC50 (Histamine H3 receptor) [µM] | AC50 [2] [µM] | AC50 (Prothrombin) [µM] | AC50 [3] [µM] | AC50 [4] [µM] | AC50 [5] [µM] | AC50 [6] [µM] | AC50 (D(3) dopamine receptor) [µM] | AC50 [7] [µM] | AC50 [8] [µM] | AC50 (D(1A) dopamine receptor) [µM] | AC50 (Acetylcholinesterase) [µM] | AC50 [9] [µM] | AC50 (Mu-type opioid receptor) [µM] | AC50 [10] [µM]
1 | O=S(=O)(O)CCS [2-MERCAPTOETHANESULFONIC ACID] | > 30 | > 30 | > 30 | 9 | > 30 | > 30 | > 30 | > 30 | > 30 | > 30 | > 30 | > 30 | > 30 | > 10 | 0.78 | > 30 | > 30
2 | CN(C)CCN(Cc1ccc(Cl)cc1)c1ccccn1 [CHLOROPYRAMINE] | > 30 | > 30 | > 30 | > 30 | > 30 | 2.88 | 0.54 | 19.4 | > 30 | 1.35 | 0.21 | > 30 | 2.23 | > 30 | > 30 | 5.22 | > 30
3 | O=C(O)c1cc(=O)c2ccccc2o1 [CHROMOCARB] | > 30 | > 30 | > 30 | > 30 | > 30 | > 30 | > 30 | > 30 | > 30 | > 30 | > 30 | > 30 | > 30 | > 30 | > 30 | > 30 | > 30
4 | CN(CC(=O)O)C(=N)N [CREATINE] | > 30 | > 30 | > 30 | > 30 | > 30 | > 30 | > 30 | > 30 | > 30 | > 30 | > 30 | > 30 | > 30 | > 30 | > 30 | > 30 | > 30
5 | C[C@]12CC[C@@H]3c4ccc(O)cc4CC[C@H]3[C@@H]1CC[C@@H]2OC(=O)CCC1CCCC1 [ESTRADIOL CYPIONATE] | > 30 | > 30 | > 30 | 17.6 | > 30 | > 30 | > 30 | > 30 | > 30 | > 30 | > 30 | > 30 | > 30 | > 30 | > 30 | > 30 | 12.5
6 | CC1(C)O[C@@H]2C[C@H]3[C@@H]4CCC5=CC(=O)CC[C@]5(C)[C@@]4(F)[C@@H](O)C[C@]3(C)[C@]2(C(=O)CCl)O1 [HALCINONIDE] | > 30 | > 30 | > 30 | > 30 | > 30 | > 30 | > 30 | > 30 | > 30 | > 30 | > 30 | > 30 | > 30 | > 30 | > 30 | > 30 | > 30
7 | N=C(N)NCc1cccc([123I])c1 [IOBENGUANE I 123] | > 30 | 26.4 | > 30 | > 30 | > 30 | > 30 | > 30 | 8.75 | > 30 | 8.17 | 6.39 | 2.49 | 13.4 | > 30 | > 30 | 22 | > 30
8 | C=C1c2c(Cl)ccc(O)c2C(=O)C2=C(O)[C@]3(O)C(=O)C(C(N)=O)=C(O)[C@@H](N(C)C)[C@@H]3[C@@H](O)[C@H]12 [MECLOCYCLINE] | > 30 | > 30 | > 30 | > 30 | > 30 | > 30 | > 30 | > 30 | > 30 | > 30 | > 30 | > 30 | > 30 | > 30 | > 30 | > 30 | > 30
9 | Cc1cc2c(OCC(O)CNC(C)C)cccc2[nH]1 (centres undefined) [MEPINDOLOL] | > 30 | > 30 | > 30 | > 30 | > 30 | > 30 | > 30 | 5.31 | > 30 | 19.9 | > 30 | 0.0041 | > 30 | > 30 | 10.9 | 21 | > 30
10 | CCOc1cc(N)c(Cl)cc1C(=O)NCC1CN(Cc2ccc(F)cc2)CCO1 (centres undefined) [MOSAPRIDE] | > 30 | > 30 | > 30 | > 30 | > 30 | > 30 | > 30 | > 30 | > 30 | 6.86 | > 30 | 5.18 | > 30 | > 30 | > 30 | > 30 | > 30
11 | CN(C)c1cc(CNCC(C)(C)C)c(O)c2c1C[C@H]1C[C@H]3[C@H](N(C)C)C(O)=C(C(N)=O)C(=O)[C@@]3(O)C(O)=C1C2=O [OMADACYCLINE] | > 10 | > 30 | > 30 | > 30 | > 30 | 9.2 | > 30 | > 30 | > 30 | > 30 | > 30 | > 30 | > 30 | > 10 | 0.16 | > 30 | > 30
12 | O=C1[C@H]2CCCC[C@H]2C(=O)N1CCCCN1CCN(c2nsc3ccccc23)CC1 [PEROSPIRONE] | 7.44 | > 30 | > 30 | > 30 | > 30 | 7.34 | 2.3 | 2.98 | > 30 | 0.003 | 3.31 | 0.003 | 0.054 | > 30 | > 30 | 9.84 | > 30
